Experimental data taken from PMC7433030 (Bioorganic & medicinal chemistry, 2020).

Legend:
G-CSF production = test: In vivo G-CSF stimulation assay; design: species or system mouse; conditions: CD2F1 mice, 200 mg/Kg subcutaneously; for G-CSF production in mice after treatment: plasma G-CSF 8-48 h
[1] = assay type: in vitro ADME; conditions: mouse liver microsomes, without NADPH (data not shown)
[2] = In vivo PK study, single subcutaneous dose in CD2F1 mice; conditions: male, CD2F1, mouse, sc, 200 mg/kg

## [2H]C([2H])([2H])C(=CCC/C(C)=C/CC/C(C)=C/CC[C@]1(C)CCc2cc(O)cc(C)c2O1)C([2H])([2H])[2H] [d6-DT3, (R)-2-((3E,7E)-4,8-dimethyl-12-(methyl-d3)trideca-3,7,11-trien-1-yl-13,13,13-d3)-2,8-dimethylchroman-6-ol]
G-CSF production
  lag time before plasma G-CSF increase: about 6 h
  time of peak plasma G-CSF concentration: 24 h
  G-CSF production in mice after treatment: significant G-CSF production
[1]
  degradation in the absence of NADPH: no degradation was observed

## CC(C)=CCC/C(C)=C/CC/C(C)=C/CC[C@]1(C)CCc2cc(O)cc(C)c2O1 [DT3, δ-tocotrienol]
G-CSF production
  lag time before plasma G-CSF increase: about 6 h
  time of peak plasma G-CSF concentration: 24 h
  G-CSF production in mice after treatment: significant G-CSF production
[1]
  degradation in the absence of NADPH: no degradation was observed
[2]
  Tmax: ~1 h
  Tmax at 24 h: 1 h
